Data published in patent publication US12391648B2, “Pyridyloxy thioester derivative and preparation method therefor, herbicidal composition, and application” (Qingdao Kingagroot Chemical Compound Co., Ltd., priority 2018, dated 2025).

How the values were obtained:
Assay in all cases: Post-emergence test experiment (Table 3, 1000 g/ha)
Format in all cases: in vivo
Details in all cases: post-emergence spray, after 3 weeks, fresh weight inhibition
Abutilon theophrasti = system: Abutilon theophrasti
Procedure, shortened: (§1)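 Activity graded levels 0-5 by fresh-weight inhibition (level 5 above 85%, level 0 below 5%), assessed 3 weeks after treatment. Plants grown in greenhouse pots were sprayed post-emergence at 2-3 leaves using acetone/tween-80 solutions with methyl oleate synergist (1.5 L/ha).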

Galium spurium = system: Galium spurium
Procedure, shortened: as §1

Monochoria vaginalis = system: Monochoria vaginalis
Procedure, shortened: as §1

Digitaria sanguinalis = system: Digitaria sanguinalis
Procedure, shortened: as §1

Setaria viridis = system: Setaria viridis
Procedure, shortened: as §1

Leptochloa chinensis = system: Leptochloa chinensis
Procedure, shortened: as §1

Structure (SMILES): CCC(CC)SC(=O)C(C)Oc1nc(F)c(Cl)c(N)c1Cl (stereo not drawn) [Compound 150]
- Activity level (growth inhibition rate) Abutilon theophrasti (Abutilon theophrasti): 5 (Level 5: the growth inhibition rate is greater than 85%)
- Activity level (growth inhibition rate) Galium spurium (Galium spurium): 5 (Level 5: the growth inhibition rate is greater than 85%)
- Activity level (growth inhibition rate) Monochoria Vaginalis (Monochoria vaginalis): 5 (Level 5: the growth inhibition rate is greater than 85%)
- Activity level (growth inhibition rate) Digitaria sanguinalis (Digitaria sanguinalis): 5 (Level 5: the growth inhibition rate is greater than 85%)
- Activity level (growth inhibition rate) Setaria viridis (Setaria viridis): 5 (Level 5: the growth inhibition rate is greater than 85%)
- Activity level (growth inhibition rate) Leptochloa chinensis (Leptochloa chinensis): 5 (Level 5: the growth inhibition rate is greater than 85%)

Structure (SMILES): CCCCC(C)SC(=O)C(C)Oc1nc(F)c(Cl)c(N)c1Cl (stereo not drawn) [Compound 151]
- Activity level (growth inhibition rate) Abutilon theophrasti (Abutilon theophrasti): 5 (Level 5: the growth inhibition rate is greater than 85%)
- Activity level (growth inhibition rate) Galium spurium (Galium spurium): 5 (Level 5: the growth inhibition rate is greater than 85%)
- Activity level (growth inhibition rate) Monochoria Vaginalis (Monochoria vaginalis): 5 (Level 5: the growth inhibition rate is greater than 85%)
- Activity level (growth inhibition rate) Digitaria sanguinalis (Digitaria sanguinalis): 5 (Level 5: the growth inhibition rate is greater than 85%)
- Activity level (growth inhibition rate) Setaria viridis (Setaria viridis): 5 (Level 5: the growth inhibition rate is greater than 85%)
- Activity level (growth inhibition rate) Leptochloa chinensis (Leptochloa chinensis): 5 (Level 5: the growth inhibition rate is greater than 85%)

Structure (SMILES): CCCC(C)CSC(=O)C(C)Oc1nc(F)c(Cl)c(N)c1Cl (stereo not drawn) [Compound 152]
- Activity level (growth inhibition rate) Abutilon theophrasti (Abutilon theophrasti): 5 (Level 5: the growth inhibition rate is greater than 85%)
- Activity level (growth inhibition rate) Galium spurium (Galium spurium): 5 (Level 5: the growth inhibition rate is greater than 85%)
- Activity level (growth inhibition rate) Monochoria Vaginalis (Monochoria vaginalis): 5 (Level 5: the growth inhibition rate is greater than 85%)
- Activity level (growth inhibition rate) Digitaria sanguinalis (Digitaria sanguinalis): 5 (Level 5: the growth inhibition rate is greater than 85%)
- Activity level (growth inhibition rate) Setaria viridis (Setaria viridis): 5 (Level 5: the growth inhibition rate is greater than 85%)
- Activity level (growth inhibition rate) Leptochloa chinensis (Leptochloa chinensis): 5 (Level 5: the growth inhibition rate is greater than 85%)

Structure (SMILES): CCC(C)CCSC(=O)C(C)Oc1nc(F)c(Cl)c(N)c1Cl (stereo not drawn) [Compound 153]
- Activity level (growth inhibition rate) Abutilon theophrasti (Abutilon theophrasti): 5 (Level 5: the growth inhibition rate is greater than 85%)
- Activity level (growth inhibition rate) Galium spurium (Galium spurium): 5 (Level 5: the growth inhibition rate is greater than 85%)
- Activity level (growth inhibition rate) Monochoria Vaginalis (Monochoria vaginalis): 5 (Level 5: the growth inhibition rate is greater than 85%)
- Activity level (growth inhibition rate) Digitaria sanguinalis (Digitaria sanguinalis): 5 (Level 5: the growth inhibition rate is greater than 85%)
- Activity level (growth inhibition rate) Setaria viridis (Setaria viridis): 5 (Level 5: the growth inhibition rate is greater than 85%)
- Activity level (growth inhibition rate) Leptochloa chinensis (Leptochloa chinensis): 5 (Level 5: the growth inhibition rate is greater than 85%)

Structure (SMILES): CC(C)CCCSC(=O)C(C)Oc1nc(F)c(Cl)c(N)c1Cl (stereo not drawn) [Compound 154]
- Activity level (growth inhibition rate) Abutilon theophrasti (Abutilon theophrasti): 5 (Level 5: the growth inhibition rate is greater than 85%)
- Activity level (growth inhibition rate) Galium spurium (Galium spurium): 5 (Level 5: the growth inhibition rate is greater than 85%)
- Activity level (growth inhibition rate) Monochoria Vaginalis (Monochoria vaginalis): 5 (Level 5: the growth inhibition rate is greater than 85%)
- Activity level (growth inhibition rate) Digitaria sanguinalis (Digitaria sanguinalis): 5 (Level 5: the growth inhibition rate is greater than 85%)
- Activity level (growth inhibition rate) Setaria viridis (Setaria viridis): 5 (Level 5: the growth inhibition rate is greater than 85%)
- Activity level (growth inhibition rate) Leptochloa chinensis (Leptochloa chinensis): 5 (Level 5: the growth inhibition rate is greater than 85%)

Structure (SMILES): CC(Oc1nc(F)c(Cl)c(N)c1Cl)C(=O)SCC#N (stereo not drawn) [Compound 155]
- Activity level (growth inhibition rate) Abutilon theophrasti (Abutilon theophrasti): 5 (Level 5: the growth inhibition rate is greater than 85%)
- Activity level (growth inhibition rate) Galium spurium (Galium spurium): 5 (Level 5: the growth inhibition rate is greater than 85%)
- Activity level (growth inhibition rate) Monochoria Vaginalis (Monochoria vaginalis): 5 (Level 5: the growth inhibition rate is greater than 85%)
- Activity level (growth inhibition rate) Digitaria sanguinalis (Digitaria sanguinalis): 5 (Level 5: the growth inhibition rate is greater than 85%)
- Activity level (growth inhibition rate) Setaria viridis (Setaria viridis): 5 (Level 5: the growth inhibition rate is greater than 85%)
- Activity level (growth inhibition rate) Leptochloa chinensis (Leptochloa chinensis): 5 (Level 5: the growth inhibition rate is greater than 85%)

Structure (SMILES): CC(Oc1nc(F)c(Cl)c(N)c1Cl)C(=O)SC[N+](=O)[O-] (stereo not drawn) [Compound 156]
- Activity level (growth inhibition rate) Abutilon theophrasti (Abutilon theophrasti): 5 (Level 5: the growth inhibition rate is greater than 85%)
- Activity level (growth inhibition rate) Galium spurium (Galium spurium): 5 (Level 5: the growth inhibition rate is greater than 85%)
- Activity level (growth inhibition rate) Monochoria Vaginalis (Monochoria vaginalis): 5 (Level 5: the growth inhibition rate is greater than 85%)
- Activity level (growth inhibition rate) Digitaria sanguinalis (Digitaria sanguinalis): 5 (Level 5: the growth inhibition rate is greater than 85%)
- Activity level (growth inhibition rate) Setaria viridis (Setaria viridis): 5 (Level 5: the growth inhibition rate is greater than 85%)
- Activity level (growth inhibition rate) Leptochloa chinensis (Leptochloa chinensis): 5 (Level 5: the growth inhibition rate is greater than 85%)

Structure (SMILES): CC(Oc1nc(F)c(Cl)c(N)c1Cl)C(=O)SCC(F)F (stereo not drawn) [Compound 157]
- Activity level (growth inhibition rate) Abutilon theophrasti (Abutilon theophrasti): 5 (Level 5: the growth inhibition rate is greater than 85%)
- Activity level (growth inhibition rate) Galium spurium (Galium spurium): 5 (Level 5: the growth inhibition rate is greater than 85%)
- Activity level (growth inhibition rate) Monochoria Vaginalis (Monochoria vaginalis): 5 (Level 5: the growth inhibition rate is greater than 85%)
- Activity level (growth inhibition rate) Digitaria sanguinalis (Digitaria sanguinalis): 5 (Level 5: the growth inhibition rate is greater than 85%)
- Activity level (growth inhibition rate) Setaria viridis (Setaria viridis): 5 (Level 5: the growth inhibition rate is greater than 85%)
- Activity level (growth inhibition rate) Leptochloa chinensis (Leptochloa chinensis): 5 (Level 5: the growth inhibition rate is greater than 85%)

Structure (SMILES): CC(Oc1nc(F)c(Cl)c(N)c1Cl)C(=O)SCCF (stereo not drawn) [Compound 158]
- Activity level (growth inhibition rate) Abutilon theophrasti (Abutilon theophrasti): 5 (Level 5: the growth inhibition rate is greater than 85%)
- Activity level (growth inhibition rate) Galium spurium (Galium spurium): 5 (Level 5: the growth inhibition rate is greater than 85%)
- Activity level (growth inhibition rate) Monochoria Vaginalis (Monochoria vaginalis): 5 (Level 5: the growth inhibition rate is greater than 85%)
- Activity level (growth inhibition rate) Digitaria sanguinalis (Digitaria sanguinalis): 5 (Level 5: the growth inhibition rate is greater than 85%)
- Activity level (growth inhibition rate) Setaria viridis (Setaria viridis): 5 (Level 5: the growth inhibition rate is greater than 85%)
- Activity level (growth inhibition rate) Leptochloa chinensis (Leptochloa chinensis): 5 (Level 5: the growth inhibition rate is greater than 85%)

Structure (SMILES): CSC(=O)C(C)Oc1nc(F)c(Cl)c(NCc2ccc(C(F)(F)F)o2)c1Cl (stereo not drawn) [Compound 161]
- Activity level (growth inhibition rate) Abutilon theophrasti (Abutilon theophrasti): 5 (Level 5: the growth inhibition rate is greater than 85%)
- Activity level (growth inhibition rate) Galium spurium (Galium spurium): 5 (Level 5: the growth inhibition rate is greater than 85%)
- Activity level (growth inhibition rate) Monochoria Vaginalis (Monochoria vaginalis): 5 (Level 5: the growth inhibition rate is greater than 85%)
- Activity level (growth inhibition rate) Digitaria sanguinalis (Digitaria sanguinalis): 5 (Level 5: the growth inhibition rate is greater than 85%)
- Activity level (growth inhibition rate) Setaria viridis (Setaria viridis): 5 (Level 5: the growth inhibition rate is greater than 85%)
- Activity level (growth inhibition rate) Leptochloa chinensis (Leptochloa chinensis): 5 (Level 5: the growth inhibition rate is greater than 85%)
